Assay results as given in ChEMBL document CHEMBL1201862, “PubChem BioAssay data set” (2004).
Calls of active or inactive are those of the source.

Key:
Cytochrome P450 2D6 = Cytochrome P450 2D6 (Homo sapiens, UniProt P10635);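 note: CYP2D6 member of a cytochrome P450 panel assay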
Large T antigen = Large T antigen (Simian virus 40, UniProt P03070); format: functional, Betapolyomavirus macacae;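 note: Confirmatory-stage PubChem screen for compounds that inhibit SV40 T antigen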
[1] = molecular target: Glucose-6-phosphate 1-dehydrogenase (Homo sapiens, UniProt P11413); assay: inhibition of Homo sapiens G6PD, dose series – biochemical, fluorescence, selectivity assay for P. falciparum G6PD inhibitor project, dose response (AID 504792); format: functional
[2] = molecular target: Glyceraldehyde-3-phosphate dehydrogenase (Homo sapiens, UniProt P04406)
Leucine aminopeptidase = molecular target: T1, Leucine aminopeptidase (Plasmodium falciparum 3D7, UniProt Q8IL11); assay: P. falciparum M17LAP inhibitors, primary screen, biochemical, fluorogenic H-Leu-NHMec substrate, 1536-well (AID 1619); format: functional
T1 sequence (Q8IL11 whole entry): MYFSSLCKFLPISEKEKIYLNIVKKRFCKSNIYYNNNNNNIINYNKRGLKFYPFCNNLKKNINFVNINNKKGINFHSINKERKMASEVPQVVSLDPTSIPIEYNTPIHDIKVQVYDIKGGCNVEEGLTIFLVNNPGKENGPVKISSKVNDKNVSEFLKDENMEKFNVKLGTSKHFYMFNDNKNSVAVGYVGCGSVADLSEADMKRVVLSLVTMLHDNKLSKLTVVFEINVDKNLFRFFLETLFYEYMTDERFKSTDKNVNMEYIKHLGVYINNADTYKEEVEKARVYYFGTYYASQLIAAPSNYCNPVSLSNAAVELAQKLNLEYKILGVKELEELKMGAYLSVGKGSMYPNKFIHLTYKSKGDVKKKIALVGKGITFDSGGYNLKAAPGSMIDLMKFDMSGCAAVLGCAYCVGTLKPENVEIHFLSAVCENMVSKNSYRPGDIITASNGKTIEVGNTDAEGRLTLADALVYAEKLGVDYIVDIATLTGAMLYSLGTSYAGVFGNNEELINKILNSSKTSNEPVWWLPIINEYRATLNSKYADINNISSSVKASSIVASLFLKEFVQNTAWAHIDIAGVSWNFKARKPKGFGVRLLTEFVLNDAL

[3] = molecular target: T2, Carboxy-terminal domain RNA polymerase II polypeptide A small phosphatase 1 (Homo sapiens, UniProt Q9GZU7); assay: CTDSP1 inhibitors, concentration-response, biochemical, absorbance readout, ultra-high-throughput screen actives (AID 540297); format: functional
T2 sequence (Q9GZU7 whole entry): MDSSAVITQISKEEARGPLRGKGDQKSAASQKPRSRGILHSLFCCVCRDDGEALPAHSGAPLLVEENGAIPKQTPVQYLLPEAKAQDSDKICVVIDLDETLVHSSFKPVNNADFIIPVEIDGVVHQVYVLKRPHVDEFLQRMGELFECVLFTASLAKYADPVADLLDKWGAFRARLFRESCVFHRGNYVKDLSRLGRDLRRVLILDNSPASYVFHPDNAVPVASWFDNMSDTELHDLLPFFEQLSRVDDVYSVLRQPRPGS

[4] = molecular target: DNA dC->dU-editing enzyme APOBEC-3A (Homo sapiens, UniProt P31941); assay: Dose Response confirmation of small molecule APOBEC3A DNA Deaminase Inhibitors via a fluorescence-based single-stranded DNA deaminase assay. [Related pubchem assays (depositor defined):AID493011, AID493024]; format: functional
[5] = molecular target: DNA dC->dU-editing enzyme APOBEC-3G (Homo sapiens, UniProt Q9HC16); format: functional;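 note: Dose-response counterscreen measuring inhibition of APOBEC3G DNA deaminase activity, run while confirming APOBEC3A inhibitors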
[6] = molecular target: Induced myeloid leukemia cell differentiation protein Mcl-1 (Homo sapiens, UniProt Q07820); format: functional
Vero = assay: viability of Vero cells under compound – cytotoxicity control for flavivirus capping enzyme inhibitors (AID 588742); format: functional; conditions: Chlorocebus sabaeus
Genome polyprotein = Genome polyprotein (dengue virus type 2, UniProt P29990); assay: flavivirus cap methylation enzyme inhibition – biochemical, confirmation dose response, primary screen (AID 588689); format: functional
[7] = P. falciparum Dd2 growth inhibitors, dose response, SYBR Green, cherry-picked samples (AID 1159567); format: functional, cell-based
[8] = growth inhibition of yeast DHODH-expressing 3D7 parasites – SYBR Green, dry powder samples, dose response (AID 1159570); format: functional, cell-based;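 note: parasite growth measured after 72 hours of compound exposure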
[9] = growth inhibition of PfATP4-mutant resistant parasites – NITD609-resistant line, SYBR Green, dry powder, dose response (AID 1159571); format: functional, cell-based;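 note: parasites synchronized at ring stage by sorbitol before testing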
[10] = Dd2 malaria parasite growth inhibition potency – SYBR Green, dry powder samples, dose response (AID 1159566); format: functional, cell-based;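 note: potency for growth inhibition with lower SYBR green DNA signal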
Protein RecA = molecular target: T3, Protein RecA (Mycobacterium tuberculosis, UniProt P9WHJ3); assay: Fluorescence Cell-Free Homogeneous Dose Retest to Identify Inhibitors of RecA-Intein Splicing Activity. [Related pubchem assays (depositor defined):AID2097, AID2223, AID489010, AID492950]; format: functional
T3 sequence (P9WHJ3 whole entry): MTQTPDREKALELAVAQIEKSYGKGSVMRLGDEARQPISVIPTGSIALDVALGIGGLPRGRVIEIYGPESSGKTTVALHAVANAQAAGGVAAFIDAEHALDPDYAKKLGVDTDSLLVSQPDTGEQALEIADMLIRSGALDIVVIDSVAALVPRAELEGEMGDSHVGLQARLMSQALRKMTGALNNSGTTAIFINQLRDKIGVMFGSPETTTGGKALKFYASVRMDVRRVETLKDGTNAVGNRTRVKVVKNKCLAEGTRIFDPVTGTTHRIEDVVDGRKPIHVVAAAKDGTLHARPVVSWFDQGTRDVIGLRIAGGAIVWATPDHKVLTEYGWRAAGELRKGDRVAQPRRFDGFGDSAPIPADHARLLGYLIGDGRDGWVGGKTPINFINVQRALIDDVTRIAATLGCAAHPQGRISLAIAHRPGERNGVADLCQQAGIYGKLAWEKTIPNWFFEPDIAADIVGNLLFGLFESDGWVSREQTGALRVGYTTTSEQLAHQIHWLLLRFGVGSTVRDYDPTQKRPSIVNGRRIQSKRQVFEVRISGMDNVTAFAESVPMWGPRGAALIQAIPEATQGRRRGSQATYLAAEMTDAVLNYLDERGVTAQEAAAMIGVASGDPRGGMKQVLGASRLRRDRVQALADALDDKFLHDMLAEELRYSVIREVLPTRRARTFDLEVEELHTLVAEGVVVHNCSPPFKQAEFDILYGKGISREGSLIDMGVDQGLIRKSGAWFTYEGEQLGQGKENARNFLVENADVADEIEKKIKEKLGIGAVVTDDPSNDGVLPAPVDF

[11] = molecular target: T4, Replicative DNA helicase DnaB (Mycobacterium tuberculosis, UniProt P9WMR3); assay: DnaB intein splicing inhibitors, dose response, biochemical, cell-free fluorescence (AID 449749); format: functional
T4 sequence (P9WMR3 whole entry): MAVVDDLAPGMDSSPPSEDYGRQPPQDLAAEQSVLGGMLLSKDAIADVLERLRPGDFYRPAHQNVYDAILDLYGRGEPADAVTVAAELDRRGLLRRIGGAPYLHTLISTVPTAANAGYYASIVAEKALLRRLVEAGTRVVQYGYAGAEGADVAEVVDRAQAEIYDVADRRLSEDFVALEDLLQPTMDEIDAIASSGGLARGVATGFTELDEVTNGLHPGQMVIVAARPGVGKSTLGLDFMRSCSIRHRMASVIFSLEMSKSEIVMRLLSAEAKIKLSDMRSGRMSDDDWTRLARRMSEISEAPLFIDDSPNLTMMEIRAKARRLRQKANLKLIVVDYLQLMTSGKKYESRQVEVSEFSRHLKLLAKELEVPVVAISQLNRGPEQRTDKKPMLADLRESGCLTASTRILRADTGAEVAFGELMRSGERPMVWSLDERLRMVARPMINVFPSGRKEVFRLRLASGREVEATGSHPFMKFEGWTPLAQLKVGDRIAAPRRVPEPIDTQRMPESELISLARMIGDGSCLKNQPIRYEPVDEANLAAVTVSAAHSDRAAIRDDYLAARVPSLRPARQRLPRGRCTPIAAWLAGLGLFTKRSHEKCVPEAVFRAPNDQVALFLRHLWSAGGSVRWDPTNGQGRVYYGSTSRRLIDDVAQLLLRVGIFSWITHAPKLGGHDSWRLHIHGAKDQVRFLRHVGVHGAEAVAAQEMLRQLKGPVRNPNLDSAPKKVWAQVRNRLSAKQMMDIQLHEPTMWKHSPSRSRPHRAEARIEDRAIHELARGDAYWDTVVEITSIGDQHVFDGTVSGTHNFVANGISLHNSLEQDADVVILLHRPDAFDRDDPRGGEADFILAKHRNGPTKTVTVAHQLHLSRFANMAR

[12] = molecular target: FAD-linked sulfhydryl oxidase ALR (Homo sapiens, UniProt P55789); assay: ALR-catalysed DTT oxidation blockers – biochemical, H2O2 detection, luminescence, cherry-pick, dose response (AID 493248)
[13] = molecular target: T5, Rac GTPase-activating protein 1 (Homo sapiens, UniProt Q9H0H5); assay: blockers of MgcRacGAP-driven Rac1 GTP hydrolysis – biochemical, ADP Hunter fluorescence, primary and confirmatory, confirmation (AID 624330); format: functional
T5 sequence (Q9H0H5 whole entry): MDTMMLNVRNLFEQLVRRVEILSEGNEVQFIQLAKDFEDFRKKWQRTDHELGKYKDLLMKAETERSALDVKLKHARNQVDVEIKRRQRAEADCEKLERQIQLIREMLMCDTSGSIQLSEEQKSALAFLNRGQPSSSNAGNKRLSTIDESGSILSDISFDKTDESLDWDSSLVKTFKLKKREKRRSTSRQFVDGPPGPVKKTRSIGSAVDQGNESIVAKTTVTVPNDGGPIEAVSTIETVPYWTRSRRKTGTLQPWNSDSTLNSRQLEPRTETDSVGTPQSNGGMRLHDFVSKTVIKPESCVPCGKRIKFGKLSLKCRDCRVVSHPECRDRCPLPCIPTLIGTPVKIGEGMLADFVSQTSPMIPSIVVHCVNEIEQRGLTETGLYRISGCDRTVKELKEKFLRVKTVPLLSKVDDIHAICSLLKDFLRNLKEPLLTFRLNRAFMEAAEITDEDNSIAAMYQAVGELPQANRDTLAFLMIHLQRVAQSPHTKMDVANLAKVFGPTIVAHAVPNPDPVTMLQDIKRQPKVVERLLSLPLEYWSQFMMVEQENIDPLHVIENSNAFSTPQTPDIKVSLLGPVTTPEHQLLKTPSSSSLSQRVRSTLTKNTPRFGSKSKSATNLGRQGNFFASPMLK

Sequence of DNA dC->dU-editing enzyme APOBEC-3G (Q9HC16 whole entry): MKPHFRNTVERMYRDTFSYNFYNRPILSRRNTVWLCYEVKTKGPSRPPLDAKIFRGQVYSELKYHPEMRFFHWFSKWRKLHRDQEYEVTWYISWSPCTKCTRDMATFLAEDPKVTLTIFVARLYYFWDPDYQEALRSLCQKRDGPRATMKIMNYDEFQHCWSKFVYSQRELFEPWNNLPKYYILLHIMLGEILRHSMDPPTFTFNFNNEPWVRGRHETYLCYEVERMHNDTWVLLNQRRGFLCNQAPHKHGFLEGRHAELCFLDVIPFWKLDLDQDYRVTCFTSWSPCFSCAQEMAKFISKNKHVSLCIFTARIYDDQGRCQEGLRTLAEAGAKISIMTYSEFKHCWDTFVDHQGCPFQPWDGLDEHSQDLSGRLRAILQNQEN
Sequence of DNA dC->dU-editing enzyme APOBEC-3A (P31941 whole entry): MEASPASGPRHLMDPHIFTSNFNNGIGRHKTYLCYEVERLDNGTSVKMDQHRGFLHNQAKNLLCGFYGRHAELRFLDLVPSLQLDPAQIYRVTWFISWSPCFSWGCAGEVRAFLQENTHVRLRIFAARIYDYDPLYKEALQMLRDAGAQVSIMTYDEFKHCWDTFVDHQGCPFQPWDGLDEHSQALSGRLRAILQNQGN
Sequence of Glyceraldehyde-3-phosphate dehydrogenase (P04406 whole entry): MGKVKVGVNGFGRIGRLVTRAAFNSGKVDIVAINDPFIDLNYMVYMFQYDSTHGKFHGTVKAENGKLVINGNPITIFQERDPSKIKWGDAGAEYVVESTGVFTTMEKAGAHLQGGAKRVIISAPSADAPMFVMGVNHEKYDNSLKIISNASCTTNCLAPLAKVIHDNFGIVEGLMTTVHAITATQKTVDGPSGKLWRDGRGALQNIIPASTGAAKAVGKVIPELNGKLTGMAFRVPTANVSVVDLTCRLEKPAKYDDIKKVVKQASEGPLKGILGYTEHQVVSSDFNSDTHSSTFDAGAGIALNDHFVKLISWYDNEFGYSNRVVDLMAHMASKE
Sequence of Large T antigen (P03070 whole entry): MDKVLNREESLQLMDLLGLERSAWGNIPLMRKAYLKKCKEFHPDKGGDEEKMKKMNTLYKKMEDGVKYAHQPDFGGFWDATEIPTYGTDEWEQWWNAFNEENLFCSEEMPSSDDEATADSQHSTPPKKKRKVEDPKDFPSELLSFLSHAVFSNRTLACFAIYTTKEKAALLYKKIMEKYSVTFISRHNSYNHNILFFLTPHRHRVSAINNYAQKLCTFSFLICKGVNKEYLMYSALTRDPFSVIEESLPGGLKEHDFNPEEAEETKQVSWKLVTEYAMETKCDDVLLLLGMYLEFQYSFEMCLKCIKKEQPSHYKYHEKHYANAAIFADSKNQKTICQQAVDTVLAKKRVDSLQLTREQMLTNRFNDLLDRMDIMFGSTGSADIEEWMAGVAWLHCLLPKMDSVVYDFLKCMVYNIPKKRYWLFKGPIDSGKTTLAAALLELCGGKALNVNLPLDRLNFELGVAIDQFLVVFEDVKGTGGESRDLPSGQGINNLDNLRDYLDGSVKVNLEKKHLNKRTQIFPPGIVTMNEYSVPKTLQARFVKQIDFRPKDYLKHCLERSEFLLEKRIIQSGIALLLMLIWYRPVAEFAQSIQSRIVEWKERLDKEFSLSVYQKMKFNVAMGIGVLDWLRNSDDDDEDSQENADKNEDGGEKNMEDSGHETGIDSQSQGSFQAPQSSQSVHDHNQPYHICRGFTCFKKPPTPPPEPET
Sequence of Genome polyprotein (P29990 2492-3391 limits assumed): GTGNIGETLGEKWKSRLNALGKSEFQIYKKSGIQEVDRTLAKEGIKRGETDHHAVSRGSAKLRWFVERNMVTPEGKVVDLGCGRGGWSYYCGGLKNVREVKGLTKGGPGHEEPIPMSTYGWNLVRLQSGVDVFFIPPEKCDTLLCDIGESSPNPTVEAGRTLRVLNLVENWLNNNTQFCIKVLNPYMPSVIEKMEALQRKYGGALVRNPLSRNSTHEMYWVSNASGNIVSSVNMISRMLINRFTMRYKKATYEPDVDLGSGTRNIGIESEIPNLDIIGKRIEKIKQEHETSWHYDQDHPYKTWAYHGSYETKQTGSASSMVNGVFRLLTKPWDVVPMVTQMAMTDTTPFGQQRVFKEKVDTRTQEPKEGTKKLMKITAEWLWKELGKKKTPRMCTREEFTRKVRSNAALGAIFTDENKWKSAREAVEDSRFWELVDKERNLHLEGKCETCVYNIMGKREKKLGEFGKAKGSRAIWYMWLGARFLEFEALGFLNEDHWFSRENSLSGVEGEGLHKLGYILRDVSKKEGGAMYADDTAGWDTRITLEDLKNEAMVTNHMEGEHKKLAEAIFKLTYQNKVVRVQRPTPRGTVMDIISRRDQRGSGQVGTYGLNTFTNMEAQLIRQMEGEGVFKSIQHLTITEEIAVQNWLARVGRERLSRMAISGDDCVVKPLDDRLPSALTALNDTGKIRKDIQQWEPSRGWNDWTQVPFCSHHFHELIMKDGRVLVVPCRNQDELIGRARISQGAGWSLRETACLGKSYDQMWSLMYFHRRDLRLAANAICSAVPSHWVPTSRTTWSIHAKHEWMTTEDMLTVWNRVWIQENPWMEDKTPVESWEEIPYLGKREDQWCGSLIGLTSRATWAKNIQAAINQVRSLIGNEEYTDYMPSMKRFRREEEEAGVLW
Sequence of Glucose-6-phosphate 1-dehydrogenase (P11413 whole entry): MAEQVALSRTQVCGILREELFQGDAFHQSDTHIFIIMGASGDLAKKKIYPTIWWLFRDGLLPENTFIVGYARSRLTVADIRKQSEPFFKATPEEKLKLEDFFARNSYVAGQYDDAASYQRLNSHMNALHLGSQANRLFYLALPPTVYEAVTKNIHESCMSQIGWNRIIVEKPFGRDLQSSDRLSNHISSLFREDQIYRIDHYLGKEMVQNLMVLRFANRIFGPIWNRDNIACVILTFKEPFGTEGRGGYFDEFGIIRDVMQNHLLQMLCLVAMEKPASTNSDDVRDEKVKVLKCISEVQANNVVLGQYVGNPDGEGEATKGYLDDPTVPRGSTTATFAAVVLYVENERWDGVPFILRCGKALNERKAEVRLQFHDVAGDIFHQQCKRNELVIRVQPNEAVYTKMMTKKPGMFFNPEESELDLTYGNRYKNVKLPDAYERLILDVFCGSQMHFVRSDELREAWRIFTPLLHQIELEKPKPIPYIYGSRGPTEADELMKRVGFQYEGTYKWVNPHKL
Sequence of Induced myeloid leukemia cell differentiation protein Mcl-1 (Q07820 whole entry): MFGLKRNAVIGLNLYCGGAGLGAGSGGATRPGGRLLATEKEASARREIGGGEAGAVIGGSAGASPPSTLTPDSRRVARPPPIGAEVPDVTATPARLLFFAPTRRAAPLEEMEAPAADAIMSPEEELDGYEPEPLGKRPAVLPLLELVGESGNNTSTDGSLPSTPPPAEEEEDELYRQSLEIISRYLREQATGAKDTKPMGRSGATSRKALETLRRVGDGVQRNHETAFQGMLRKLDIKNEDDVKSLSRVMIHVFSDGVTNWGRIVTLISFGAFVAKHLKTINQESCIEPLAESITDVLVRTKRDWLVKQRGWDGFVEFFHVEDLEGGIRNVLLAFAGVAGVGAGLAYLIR
Sequence of FAD-linked sulfhydryl oxidase ALR (P55789 whole entry): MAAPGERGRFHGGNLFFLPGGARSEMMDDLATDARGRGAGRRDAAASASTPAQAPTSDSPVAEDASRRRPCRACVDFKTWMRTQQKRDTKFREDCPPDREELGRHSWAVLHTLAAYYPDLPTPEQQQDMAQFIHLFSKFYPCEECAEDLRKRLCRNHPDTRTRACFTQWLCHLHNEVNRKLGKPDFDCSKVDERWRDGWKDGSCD
Sequence of Cytochrome P450 2D6 (P10635 whole entry): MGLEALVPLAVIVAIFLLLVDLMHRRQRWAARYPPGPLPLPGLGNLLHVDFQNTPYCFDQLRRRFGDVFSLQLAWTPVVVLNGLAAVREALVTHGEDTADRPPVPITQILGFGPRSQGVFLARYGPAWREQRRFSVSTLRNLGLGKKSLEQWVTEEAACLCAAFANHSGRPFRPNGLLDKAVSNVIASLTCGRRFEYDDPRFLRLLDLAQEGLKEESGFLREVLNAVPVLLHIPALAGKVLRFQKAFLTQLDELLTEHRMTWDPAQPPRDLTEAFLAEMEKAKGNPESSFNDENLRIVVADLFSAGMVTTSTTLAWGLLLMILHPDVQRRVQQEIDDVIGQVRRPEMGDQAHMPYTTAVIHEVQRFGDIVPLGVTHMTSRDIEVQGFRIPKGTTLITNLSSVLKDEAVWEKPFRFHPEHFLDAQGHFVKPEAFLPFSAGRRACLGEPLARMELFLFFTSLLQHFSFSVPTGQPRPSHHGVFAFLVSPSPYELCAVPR

O=C(O)C1=CC(=C(c2ccc(O)c(C(=O)O)c2)c2ccc(O)c(C(=O)O)c2)C=CC1=O [AURINTRICARBOXYLIC ACID]
AC50 (Cytochrome P450 2D6): 39.8 µM (inconclusive) | IC50 (Large T antigen): 1.93 µM (active)

O=C(COc1ccccc1F)OCC(=O)c1ccc([N+](=O)[O-])cc1
IC50 [1]: > 80 µM (inactive)

CCOc1ccc(Cl)cc1S(=O)(=O)Nc1cccnc1
IC50 [2]: > 100 µM (not active)

Cc1ccc(N2C(=O)C(Cl)=C(N3CCN(c4ccccc4)CC3)C2=O)cc1
IC50 [2]: > 50 µM (inconclusive)

S=c1[nH]c(-c2ccccc2)nn1-c1ccccc1
IC50 (Leucine aminopeptidase): 11.5 µM (active)

CC[N+](CC)(CC)CCOc1ccc(/C=C/c2ccccc2)cc1 [STILONIUM IODIDE]
IC50 [3]: 20.2 µM (active) | IC50 [4]: 2.33 µM (active) | IC50 [5]: 2.57 µM (active)

CCCCOC(=O)Nc1ccc(N(C)C)cc1
IC50 [6]: 0.473 µM (not active) | IC50 (Large T antigen): 5.43 µM (active)

O=C(O)c1cccc(Cn2c(Cl)c(/C=N/NC(=O)c3ccccc3Cl)sc2=O)c1
IC50 (Leucine aminopeptidase): 34.1 µM (active)

CCOC(=O)COc1ncn(-c2ccccc2)n1
IC50 (Leucine aminopeptidase): 13.9 µM (active)

O=C(O)C1=CC[C@@H](c2ccc(Cl)cc2)N(S(=O)(=O)c2ccc(Cl)cc2)[C@H]1c1ccc(Br)cc1
CC50 (Vero): > 40 µM (active) | IC50 (Genome polyprotein): 36.5 µM (active)

C[C@H](CCC(=O)O)[C@H]1CC[C@H]2[C@@H]3CC[C@@H]4C[C@H](O)CC[C@]4(C)[C@H]3CC[C@]12C [LITHOCHOLIC ACID]
IC50 [3]: 4.82 µM (active) | IC50 (Large T antigen): 26.1 µM (active)

O=C(C1CCCC1)N1CC(=O)N2[C@H](CO)[C@H](c3ccc(-c4cccnc4)cc3)[C@H]2C1
AC50 [7]: 1.47 µM (active) | AC50 [8]: 2.33 µM (active) | AC50 [9]: 1.85 µM (active) | AC50 [10]: 1.11 µM (active)

Cc1ccc(S(=O)(=O)N2[C@@H](c3cccc(Cl)c3)C(C(=O)O)=CC[C@H]2c2ccc(Cl)c(Cl)c2)cc1
CC50 (Vero): > 40 µM (active) | IC50 (Genome polyprotein): 57.9 µM (active)

O=C1C=C(O)CC(c2ccco2)C1 (stereo unspecified)
IC50 [4]: 14 µM (active) | IC50 [5]: 37.5 µM (active)

COc1ccc(N2CCN(C3=C(Cl)C(=O)N(c4ccc(Cl)nc4)C3=O)CC2)cc1
IC50 [2]: > 50 µM (inconclusive)

Nc1cc(N)c(OCC(F)(F)F)cc1OCC(F)(F)F
IC50 [1]: 32.7 µM (inactive) | EC50 (Protein RecA): 4.82 µM (active) | AC50 [11]: 7.43 µM (active)

CC(=O)Nc1nnc(SCC(=O)NCC2CCCO2)s1 (stereo unspecified)
IC50 [4]: 38.6 µM (active) | IC50 [5]: 22.5 µM (active)

O=C(CSc1n[nH]c(-c2ccncc2)n1)Nc1ccc(Cl)c(Cl)c1
IC50 [4]: 8.81 µM (active) | IC50 [5]: 9.18 µM (active)

Cc1cc(NS(=O)(=O)c2ccc(Nc3nc(-c4ccc(O)cc4)cs3)cc2)no1
AC50 [12]: 0.108 µM (active) | IC50 [13]: 30.8 µM (active) | IC50 (Large T antigen): > 100 µM (active)
